Measured values as given in patent US9512141B2, “Pyrazine derivatives as CB2 receptor agonists” (Hoffmann-La Roche Inc., priority 2012, dated 2016).
pEC50: −log10 of the molar value. Read-outs that look alike come from different tables or passages of the source.

Legend:
[1] = molecular target: human CB2 receptors (Homo sapiens (Human), UniProt P34972); experiment: cAMP assay (functional), CHO cells expressing human CB2 receptors; assay type: cell-based
Description: (§1) CHO cells expressing human CB1 or CB2 receptors are seeded 17-24 hours prior to the experiment 50.000 cells per well in a black 96 well plate with flat clear bottom (Corning Costar #3904) in DMEM (Invitrogen No. 31331), 1×HT supplement, with 10% fetal calf serum and incubated at 5% CO2 and 37° C. in a humidified incubator. The growth medium was exchanged with Krebs Ringer Bicarbonate buffer with 1 mM IBMX and incubated at 30° C. for 30 min. Compounds were added to a final assay volume of 100 μl and incubated for 30 min at 30° C. Using the cAMP-Nano-TRF detection kit the assay (Roche Diagnostics) was stopped by the addition of 50 μl lysis reagent (Tris, NaCl, 1.5% Triton X100, 2.5% NP40, 10% NaN3) and 50 μl detection solutions (20 μM mAb Alexa700-cAMP 1:1, and 48 μM Ruthenium-2-AHA-cAMP) and shaken for 2 h at room temperature. The time-resolved energy transfer is measured by a TRF reader (Evotec Technologies GmbH), equipped with a ND:YAG laser as excitation source. The plate is measured twice with the excitation at 355 nm and at the emission with a delay of 100 ns and a gate of 100 ns, total exposure time 10 s at 730 (bandwidth 30 nm) or 645 nm (bandwidth 75 nm), respectively. The FRET signal is calculated as follows: FRET=T730-Alexa730-P (T645-B645) with P=Ru730-B730/Ru645-B645, where T730 is the test well measured at […], T645 is the test well measured at 645 nm, B730 and B645 are the buffer controls at 730 nm and 645 nm, respectively. cAMP content is determined from the function of a standard curve spanning from 10 μM to 0.13 nM cAMP.
(§2) EC50 values were determined using Activity Base analysis (ID Business Solution, Limited). The EC50 values for a wide range of cannabinoid agonists generated from this assay were in agreement with the values published in the scientific literature.

[2] = molecular target: human CB1 receptors (Homo sapiens (Human), UniProt P21554); experiment: cAMP assay (functional), CHO cells expressing human CB1 receptors; assay type: cell-based
Description: as §1, §2

[3] = functional cAMP assay, CHO cells expressing human CB2, read-out: human CB2 EC50
[4] = functional cAMP assay, CHO cells expressing human CB1, read-out: human CB1 EC50

human CB2 receptors, sequence (P34972 whole entry): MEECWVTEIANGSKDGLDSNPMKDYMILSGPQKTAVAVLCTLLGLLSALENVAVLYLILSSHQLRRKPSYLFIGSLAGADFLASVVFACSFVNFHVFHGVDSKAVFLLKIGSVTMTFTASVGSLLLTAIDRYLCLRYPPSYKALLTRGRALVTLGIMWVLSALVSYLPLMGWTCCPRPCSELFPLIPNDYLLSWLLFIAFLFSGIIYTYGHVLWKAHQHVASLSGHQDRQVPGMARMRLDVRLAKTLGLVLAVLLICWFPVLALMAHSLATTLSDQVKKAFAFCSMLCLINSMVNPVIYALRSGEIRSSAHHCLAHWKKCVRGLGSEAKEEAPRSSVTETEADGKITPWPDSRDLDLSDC
human CB1 receptors, sequence (P21554 whole entry): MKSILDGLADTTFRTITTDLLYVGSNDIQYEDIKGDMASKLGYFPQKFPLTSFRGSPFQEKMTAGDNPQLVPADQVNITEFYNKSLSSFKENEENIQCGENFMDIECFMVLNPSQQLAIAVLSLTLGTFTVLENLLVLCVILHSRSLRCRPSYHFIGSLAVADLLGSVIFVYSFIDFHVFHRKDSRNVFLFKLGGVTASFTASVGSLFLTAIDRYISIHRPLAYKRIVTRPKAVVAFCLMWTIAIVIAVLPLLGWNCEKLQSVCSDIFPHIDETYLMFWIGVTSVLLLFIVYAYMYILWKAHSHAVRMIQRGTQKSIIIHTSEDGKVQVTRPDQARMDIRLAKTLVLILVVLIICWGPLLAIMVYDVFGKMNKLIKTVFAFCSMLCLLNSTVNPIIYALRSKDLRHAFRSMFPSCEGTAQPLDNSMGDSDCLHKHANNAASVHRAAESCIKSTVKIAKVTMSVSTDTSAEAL

Compound	pEC50 [1]	pEC50 [2]	pEC50 [1, 3]	pEC50 [2, 4]
NC(=O)C1CC2(CC2)CN1C(=O)c1cnc(N2CC(F)(F)C2)c(OCC2CC2)n1 (racemic) [Example 40, (±)-5-[6-(Cyclopropylmethoxy)-5-(3,3-difluoroazetidin-1-yl)pyrazine-2-carbonyl]-5-azaspiro[2.4]heptane-6-carboxamide]	7.41	< 5.00	–	–
NC(=O)C1CCCCN1C(=O)c1cnc(N2CC(F)(F)C2)c(OCC2CC2)n1 (single isomer, unassigned; (-)) [Example 36, (−)-1-[6-Cyclopropylmethoxy-5-(3,3-difluoro-azetidin-1-yl)-pyrazine-2-carbonyl]-piperidine-2-carboxylic acid amide]	–	–	6.66	< 5.00
NC(=O)C1CSCCN1C(=O)c1cnc(N2CC(F)(F)C2)c(OCC2CC2)n1 (single isomer, unassigned; (-)) [Example 37, (−)-4-[6-Cyclopropylmethoxy-5-(3,3-difluoro-azetidin-1-yl)-pyrazine-2-carbonyl]-thiomorpholine-3-carboxylic acid amide]	–	–	6.51	< 5.00
CC1(C)CC(C(N)=O)N(C(=O)c2cnc(N3CC(F)(F)C3)c(OCC3CC3)n2)C1 (single isomer, unassigned; (-)) [Example 38, (−)-1-[6-Cyclopropylmethoxy-5-(3,3-difluoro-azetidin-1-yl)-pyrazine-2-carbonyl]-4,4-dimethyl-pyrrolidine-2-carboxylic acid amide]	–	–	8.85	< 5.00
CC1(C)CC(C(N)=O)N(C(=O)c2cnc(C3CC3)c(OCC3CC3)n2)C1 (single isomer, unassigned; (-)) [Example 39, (−)-1-(5-Cyclopropyl-6-cyclopropylmethoxy-pyrazine-2-carbonyl)-4,4-dimethyl-pyrrolidine-2-carboxylic acid amide]	–	–	7.99	< 5.00
C[C@@H]1CCCN1C(=O)c1cnc(C2CC2)c(OCC2CC2)n1 [Example 1, (5-Cyclopropyl-6-cyclopropylmethoxy-pyrazin-2-yl)-((R)-2-methyl-pyrrolidin-1-yl)-methanone]	–	–	7.24	< 5.00
C[C@@H]1CCCN1C(=O)c1cnc(N2CC(F)(F)C2)c(OCC2CC2)n1 [Example 2, [6-Cyclopropylmethoxy-5-(3,3-difluoro-azetidin-1-yl)-pyrazin-2-yl]-((R)-2-methyl-pyrrolidin-1-yl)-methanone]	–	–	8.31	< 5.00
COCCN(C(=O)c1cnc(N2CC(F)(F)C2)c(OCC2CC2)n1)C(C)(C)C [Example 3, 6-Cyclopropylmethoxy-5-(3,3-difluoro-azetidin-1-yl)-pyrazine-2-carboxylic acid tert-butyl-(2-methoxy-ethyl)-amide]	–	–	8.40	< 5.00
CC1(C)COCCN1C(=O)c1cnc(N2CC(F)(F)C2)c(OCC2CC2)n1 [Example 4, [6-Cyclopropylmethoxy-5-(3,3-difluoro-azetidin-1-yl)-pyrazin-2-yl]-(3,3-dimethyl-morpholin-4-yl)-methanone]	–	–	8.37	< 5.00
C[C@H]1CCCN1C(=O)c1cnc(N2CC(F)(F)C2)c(OCC2CC2)n1 [Example 5, [6-Cyclopropylmethoxy-5-(3,3-difluoro-azetidin-1-yl)-pyrazin-2-yl]-((S)-2-methyl-pyrrolidin-1-yl)-methanone]	–	–	7.09	< 5.00
O=C(c1cnc(N2CC(F)(F)C2)c(OCC2CC2)n1)N1CC2CC1CO2 (stereo not drawn) [Example 6, [6-Cyclopropylmethoxy-5-(3,3-difluoro-azetidin-1-yl)-pyrazin-2-yl]-2-oxa-5-aza-bicyclo[2.2.1]hept-5-yl-methanone]	–	–	6.59	< 5.00
CN(C(=O)c1cnc(N2CC(F)(F)C2)c(OCC2CC2)n1)C(C)(C)C [Example 7, 6-Cyclopropylmethoxy-5-(3,3-difluoro-azetidin-1-yl)-pyrazine-2-carboxylic acid tert-butyl-methyl-amide]	–	–	8.49	< 5.00
